Experimental data published in the NIST ThermoML archive (doi:10.1016/j.fluid.2010.02.020).
Several values for one entry are separate records, joined by “and”; a condition that tells them apart may be missing. Equal values may be shown once. Numbers after ± are expanded uncertainties.

Conditions: for mass density: 101.33 kPa, Liquid, Vibrating tube method; for surface tension liquid-gas: Pendant drop shape

Structure (SMILES): CCCCCC[n+]1ccn(C)c1.O=S(=O)([N-]S(=O)(=O)C(F)(F)F)C(F)(F)F
- mass density (293.15 K): 1378.1 ± 5.5 kg/m3
- mass density (303.15 K): 1368.9 ± 5.5 kg/m3
- surface tension liquid-gas (313 K): 29.4 ± 1 mN/m
- mass density (313.15 K): 1359.8 ± 5.5 kg/m3
- mass density (323.15 K): 1350.8 ± 5.4 kg/m3
- mass density (333.15 K): 1341.8 ± 5.4 kg/m3
- surface tension liquid-gas (333.2 K): 28.1 ± 1 mN/m
- mass density (343.15 K): 1332.9 ± 5.4 kg/m3
- mass density (353.15 K): 1324 ± 5.3 kg/m3
- surface tension liquid-gas (353.4 K): 27.2 ± 1 mN/m
- mass density (363.15 K): 1315.2 ± 5.3 kg/m3
- mass density (373.15 K): 1306.3 ± 5.2 kg/m3
- surface tension liquid-gas (373.4 K): 26.5 ± 1 mN/m
- mass density (383.15 K): 1297.4 ± 5.2 kg/m3
- mass density (393.15 K): 1288.5 ± 5.2 kg/m3
- surface tension liquid-gas (393.5 K): 25.6 ± 1 mN/m
- mass density (403.15 K): 1279.6 ± 5.1 kg/m3
- mass density (413.15 K): 1270.6 ± 5.1 kg/m3
- surface tension liquid-gas (413.3 K): 24.8 ± 1 mN/m
- mass density (423.15 K): 1261.6 ± 5.1 kg/m3
- mass density (433.15 K): 1252.4 ± 5 kg/m3
- surface tension liquid-gas (433.6 K): 24.2 ± 1 mN/m
- mass density (443.15 K): 1243.2 ± 5 kg/m3
- mass density (453.15 K): 1233.9 ± 5 kg/m3
- surface tension liquid-gas (453.4 K): 23.6 ± 1 mN/m
- mass density (463.15 K): 1224.5 ± 4.9 kg/m3
- mass density (473.15 K): 1214.9 ± 4.9 kg/m3
- surface tension liquid-gas (473.4 K): 21.8 ± 1 mN/m
- surface tension liquid-gas (493.2 K): 20.7 ± 1 mN/m
- surface tension liquid-gas (512.7 K): 19.3 ± 1 mN/m
- surface tension liquid-gas (532.4 K): 18.5 ± 1 mN/m

Structure (SMILES): CCn1cc[n+](C)c1.O=S(=O)([N-]S(=O)(=O)C(F)(F)F)C(F)(F)F
- mass density (293.15 K): 1525 ± 6.1 kg/m3
- mass density (303.15 K): 1515.1 ± 6.1 kg/m3
- surface tension liquid-gas (313 K): 35.2 ± 1.1 mN/m
- mass density (313.15 K): 1505.3 ± 6.1 kg/m3
- surface tension liquid-gas (313.2 K): 33.8 ± 1.1 mN/m and 34.7 ± 1.1 mN/m
- mass density (323.15 K): 1495.5 ± 6 kg/m3
- surface tension liquid-gas (332.7 K): 34.2 ± 1.1 mN/m
- mass density (333.15 K): 1485.8 ± 6 kg/m3
- surface tension liquid-gas (333.3 K): 33.6 ± 1.1 mN/m
- mass density (343.15 K): 1476.1 ± 5.9 kg/m3
- surface tension liquid-gas (352.4 K): 33.4 ± 1.1 mN/m
- mass density (353.15 K): 1466.4 ± 5.9 kg/m3
- surface tension liquid-gas (353.4 K): 33.4 ± 1.1 mN/m
- mass density (363.15 K): 1456.7 ± 5.9 kg/m3
- surface tension liquid-gas (372.7 K): 32.5 ± 1.1 mN/m
- mass density (373.15 K): 1447 ± 5.8 kg/m3
- surface tension liquid-gas (373.2 K): 31.5 ± 1.1 mN/m
- mass density (383.15 K): 1437.2 ± 5.8 kg/m3
- surface tension liquid-gas (392.9 K): 31.4 ± 1.1 mN/m
- mass density (393.15 K): 1427.4 ± 5.7 kg/m3
- surface tension liquid-gas (393.2 K): 31.1 ± 1.1 mN/m
- mass density (403.15 K): 1417.5 ± 5.7 kg/m3
- surface tension liquid-gas (412.8 K): 30.5 ± 1.1 mN/m
- surface tension liquid-gas (413.1 K): 30.1 ± 1.1 mN/m
- mass density (413.15 K): 1407.5 ± 5.7 kg/m3
- mass density (423.15 K): 1397.5 ± 5.6 kg/m3
- surface tension liquid-gas (432.5 K): 29.6 ± 1.1 mN/m
- mass density (433.15 K): 1387.3 ± 5.6 kg/m3
- mass density (443.15 K): 1377 ± 5.5 kg/m3
- surface tension liquid-gas (452.7 K): 27.3 ± 1.4 mN/m
- surface tension liquid-gas (453 K): 28.7 ± 1.4 mN/m
- mass density (453.15 K): 1366.6 ± 5.5 kg/m3
- mass density (463.15 K): 1356 ± 5.4 kg/m3
- surface tension liquid-gas (472.5 K): 25.7 ± 1 mN/m
- surface tension liquid-gas (472.7 K): 26.4 ± 1 mN/m
- mass density (473.15 K): 1345.2 ± 5.4 kg/m3
- surface tension liquid-gas (512.6 K): 24.6 ± 1 mN/m
- surface tension liquid-gas (532.2 K): 23.7 ± 1 mN/m

Structure (SMILES): CCCCCCCCC[n+]1ccn(C)c1.O=S(=O)([N-]S(=O)(=O)C(F)(F)F)C(F)(F)F
- mass density (293.15 K): 1303.1 ± 5.4 kg/m3
- mass density (303.15 K): 1294.2 ± 5.4 kg/m3
- mass density (313.15 K): 1285.5 ± 5.3 kg/m3
- mass density (323.15 K): 1276.8 ± 5.3 kg/m3
- mass density (333.15 K): 1268.3 ± 5.2 kg/m3
- mass density (343.15 K): 1259.7 ± 5.2 kg/m3
- mass density (353.15 K): 1251.3 ± 5.2 kg/m3
- mass density (363.15 K): 1242.8 ± 5.1 kg/m3
- mass density (373.15 K): 1234.3 ± 5.1 kg/m3
- mass density (383.15 K): 1225.8 ± 5.1 kg/m3
- mass density (393.15 K): 1217.4 ± 5 kg/m3
- mass density (403.15 K): 1208.8 ± 5 kg/m3
- mass density (413.15 K): 1200.3 ± 4.9 kg/m3
- mass density (423.15 K): 1191.8 ± 4.9 kg/m3
- mass density (433.15 K): 1183.2 ± 4.9 kg/m3
- mass density (443.15 K): 1174.5 ± 4.8 kg/m3
- mass density (453.15 K): 1165.7 ± 4.8 kg/m3
- mass density (463.15 K): 1156.8 ± 4.8 kg/m3
- mass density (473.15 K): 1147.8 ± 4.7 kg/m3

Structure (SMILES): CCCCCCCCn1cc[n+](C)c1.O=S(=O)([N-]S(=O)(=O)C(F)(F)F)C(F)(F)F
- mass density (293.15 K): 1326.5 ± 5.3 kg/m3
- mass density (303.15 K): 1317.5 ± 5.3 kg/m3
- surface tension liquid-gas (313 K): 29.2 ± 1.3 mN/m
- mass density (313.15 K): 1308.6 ± 5.3 kg/m3
- surface tension liquid-gas (313.2 K): 28.5 ± 1.3 mN/m
- mass density (323.15 K): 1299.8 ± 5.2 kg/m3
- surface tension liquid-gas (332.6 K): 27.4 ± 1.1 mN/m
- mass density (333.15 K): 1291.2 ± 5.2 kg/m3
- surface tension liquid-gas (333.3 K): 28.2 ± 1.1 mN/m
- mass density (343.15 K): 1282.5 ± 5.1 kg/m3
- surface tension liquid-gas (352.8 K): 26.1 ± 1.1 mN/m
- mass density (353.15 K): 1273.9 ± 5.1 kg/m3
- surface tension liquid-gas (353.8 K): 27.3 ± 1.1 mN/m
- mass density (363.15 K): 1265.3 ± 5.1 kg/m3
- surface tension liquid-gas (372.8 K): 25.2 ± 1.1 mN/m
- mass density (373.15 K): 1256.7 ± 5 kg/m3
- surface tension liquid-gas (373.6 K): 26.3 ± 1.1 mN/m
- mass density (383.15 K): 1248.1 ± 5 kg/m3
- surface tension liquid-gas (392.9 K): 24 ± 1.1 mN/m
- mass density (393.15 K): 1239.5 ± 5 kg/m3
- surface tension liquid-gas (393.6 K): 25.3 ± 1.1 mN/m
- mass density (403.15 K): 1230.9 ± 4.9 kg/m3
- surface tension liquid-gas (412.9 K): 23.1 ± 1.1 mN/m
- mass density (413.15 K): 1222.2 ± 4.9 kg/m3
- surface tension liquid-gas (413.4 K): 24.3 ± 1.1 mN/m
- mass density (423.15 K): 1213.5 ± 4.9 kg/m3
- surface tension liquid-gas (432.8 K): 22.1 ± 1.1 mN/m
- mass density (433.15 K): 1204.8 ± 4.8 kg/m3
- surface tension liquid-gas (433.3 K): 23.2 ± 1.1 mN/m
- mass density (443.15 K): 1195.9 ± 4.8 kg/m3
- surface tension liquid-gas (452.5 K): 21.5 ± 1 mN/m
- mass density (453.15 K): 1187 ± 4.8 kg/m3
- surface tension liquid-gas (453.4 K): 22.1 ± 1 mN/m
- mass density (463.15 K): 1178 ± 4.7 kg/m3
- surface tension liquid-gas (472.4 K): 19.7 ± 1 mN/m
- mass density (473.15 K): 1168.8 ± 4.7 kg/m3
- surface tension liquid-gas (473.6 K): 20.7 ± 1 mN/m
- surface tension liquid-gas (493 K): 20.1 ± 1 mN/m
- surface tension liquid-gas (512.6 K): 19.2 ± 1 mN/m

Structure (SMILES): CCCn1cc[n+](C)c1.O=S(=O)([N-]S(=O)(=O)C(F)(F)F)C(F)(F)F
- mass density (293.15 K): 1480.5 ± 6 kg/m3
- mass density (303.15 K): 1470.8 ± 5.9 kg/m3
- surface tension liquid-gas (312.9 K): 32.5 ± 1.1 mN/m
- mass density (313.15 K): 1461.1 ± 5.9 kg/m3
- mass density (323.15 K): 1451.5 ± 5.8 kg/m3
- mass density (333.15 K): 1441.9 ± 5.8 kg/m3
- surface tension liquid-gas (333.6 K): 31.5 ± 1.1 mN/m
- mass density (343.15 K): 1432.4 ± 5.8 kg/m3
- mass density (353.15 K): 1422.9 ± 5.7 kg/m3
- surface tension liquid-gas (353.9 K): 30.2 ± 1.1 mN/m
- mass density (363.15 K): 1413.5 ± 5.7 kg/m3
- mass density (373.15 K): 1404 ± 5.6 kg/m3
- surface tension liquid-gas (373.5 K): 28.8 ± 1.1 mN/m
- surface tension liquid-gas (374.2 K): 29.1 ± 1.1 mN/m
- mass density (383.15 K): 1394.5 ± 5.6 kg/m3
- mass density (393.15 K): 1384.9 ± 5.6 kg/m3
- surface tension liquid-gas (393.5 K): 29.4 ± 1.1 mN/m
- surface tension liquid-gas (394.5 K): 28 ± 1.1 mN/m
- mass density (403.15 K): 1375.3 ± 5.5 kg/m3
- mass density (413.15 K): 1365.6 ± 5.5 kg/m3
- surface tension liquid-gas (413.6 K): 28.2 ± 1.1 mN/m
- surface tension liquid-gas (414.9 K): 27.1 ± 1.1 mN/m
- mass density (423.15 K): 1355.8 ± 5.4 kg/m3
- mass density (433.15 K): 1345.9 ± 5.4 kg/m3
- surface tension liquid-gas (433.3 K): 27.6 ± 1.1 mN/m
- surface tension liquid-gas (435.2 K): 26.3 ± 1.1 mN/m
- mass density (443.15 K): 1335.9 ± 5.4 kg/m3
- mass density (453.15 K): 1325.8 ± 5.3 kg/m3
- surface tension liquid-gas (453.2 K): 26.8 ± 1 mN/m
- surface tension liquid-gas (455.5 K): 26.1 ± 1 mN/m
- mass density (463.15 K): 1315.6 ± 5.3 kg/m3
- surface tension liquid-gas (473 K): 24.4 ± 1 mN/m
- mass density (473.15 K): 1305.1 ± 5.2 kg/m3
- surface tension liquid-gas (475.7 K): 24.6 ± 1 mN/m

Structure (SMILES): CCCCCCCCCCCCn1cc[n+](C)c1.O=S(=O)([N-]S(=O)(=O)C(F)(F)F)C(F)(F)F
- mass density (293.15 K): 1249.6 ± 5 kg/m3
- mass density (303.15 K): 1240.9 ± 5 kg/m3
- mass density (313.15 K): 1232.4 ± 4.9 kg/m3
- mass density (323.15 K): 1224 ± 4.9 kg/m3
- mass density (333.15 K): 1215.6 ± 4.9 kg/m3
- surface tension liquid-gas (333.3 K): 26.4 ± 1 mN/m
- mass density (343.15 K): 1207.4 ± 4.8 kg/m3
- mass density (353.15 K): 1199.2 ± 4.8 kg/m3
- surface tension liquid-gas (353.6 K): 25.4 ± 1 mN/m
- mass density (363.15 K): 1190.9 ± 4.8 kg/m3
- mass density (373.15 K): 1182.8 ± 4.7 kg/m3
- surface tension liquid-gas (373.7 K): 24.5 ± 1 mN/m
- mass density (383.15 K): 1174.7 ± 4.7 kg/m3
- mass density (393.15 K): 1166.2 ± 4.7 kg/m3
- surface tension liquid-gas (393.6 K): 23.6 ± 1 mN/m
- mass density (403.15 K): 1158.4 ± 4.6 kg/m3
- mass density (413.15 K): 1150.2 ± 4.6 kg/m3
- surface tension liquid-gas (413.7 K): 22.5 ± 1 mN/m
- mass density (423.15 K): 1142 ± 4.6 kg/m3
- mass density (433.15 K): 1133.7 ± 4.5 kg/m3
- surface tension liquid-gas (433.6 K): 21.4 ± 1 mN/m
- surface tension liquid-gas (453.8 K): 20.4 ± 1 mN/m
- surface tension liquid-gas (473.7 K): 19.5 ± 1 mN/m
- surface tension liquid-gas (493.3 K): 18.8 ± 1 mN/m
- surface tension liquid-gas (512.9 K): 17.8 ± 1 mN/m
- surface tension liquid-gas (532.6 K): 16.9 ± 1 mN/m
